We go through twelve compounds from ChEMBL document CHEMBL3580620, “Anti-inflammatory and antitumor phenylpropanoid sucrosides from the seeds of Raphanus sativus” (Bioorg Med Chem Lett, 2014).

One series deals with BV-2. Put plainly: Inhibition of LPS-induced nitric oxide production in mouse BV2 cells treated for 30 mins prior to LPS stimulation for 24 hrs by Griess assay. The series is classed as functional, cell-based.
The nature of series [1]: Cytotoxicity against mouse BV2 cells assessed as inhibition of cell viability up to 50 uM by MTT assay. The series is classed as cell-based. The conditions noted are these: bv-2.
Another series deals with A549. Put plainly: Cytotoxicity against human A549 cells assessed as cell growth inhibition after 48 hrs by SRB assay. It counts as functional, cell-based. The conditions noted are these: A549, 48 h.
Another series concerns SK-OV-3. The experiment in a line: Cytotoxicity against human SKOV3 cells assessed as cell growth inhibition after 48 hrs by SRB assay. The series is classed as functional, cell-based. The conditions noted are these: SK-OV-3, 48 h.
The subject of the next series is SK-MEL-2. Put plainly: Cytotoxicity against human SK-MEL-2 cells assessed as cell growth inhibition after 48 hrs by SRB assay. It counts as functional, cell-based. The conditions noted are these: SK-MEL-2, 48 h.
For another series, the system named is HCT-15. Put plainly: Cytotoxicity against human HCT15 cells assessed as cell growth inhibition after 48 hrs by SRB assay. The series is classed as functional, cell-based. The conditions noted are these: HCT-15, 48 h.
Series [2] can be described thus: Antioxidant activity assessed as DPPH radical scavenging activity after 10 mins by spectrophotomteric analysis. The series is classed as physicochemical.
Series [3] is described as follows: Cytotoxicity against mouse BV2 cells assessed as inhibition of cell viability by MTT assay. The series is classed as cell-based, BV-2. The conditions noted are these: read-out: INH.
For another series, the system named is RAW264.7. Put plainly: Inhibition of LPS-induced nitric oxide production in mouse RAW264.7 cells at 100 uM. The series is classed as functional.

Values after ≈ are worked out from the molar mass of the structure shown.

For `COc1cc(/C=C/C(=O)O[C@H]2[C@H](OC(=O)/C=C/c3cc(OC)c(O)c(OC)c3)[C@@H](CO)O[C@@]2(CO)O[C@H]2O[C@H](COC(=O)/C=C/c3cc(OC)c(O)c(OC)c3)[C@@H](O)[C@H](O)[C@H]2O)ccc1O`, the IC50 was found to be 34.8 µM with BV-2; 26.9 µM in the series with A549; 23.8 µM in the series on SK-OV-3; 16.7 µM in the series with SK-MEL-2; 18.9 µM with HCT-15; 23.05 µg/mL (≈ 24.8 µM) in series [2]. In [1], the Activity entry was “Non-toxic”.

Consider `COc1cc(/C=C/C(=O)OC[C@H]2O[C@@](CO)(O[C@H]3O[C@H](COC(=O)/C=C/c4cc(OC)c(O)c(OC)c4)[C@@H](O)[C@H](O)[C@H]3O)[C@@H](OC(=O)/C=C/c3cc(OC)c(O)c(OC)c3)[C@@H]2O)cc(OC)c1O`, for which the IC50 in the series on BV-2 was 21.6 µM; with A549 it was 20.8 µM; in the series with SK-OV-3, 6.71 µM; in the series on SK-MEL-2 it was 9.5 µM; in the series with HCT-15 it was 12.4 µM; in series [2] it was 44.59 µg/mL (≈ 46.4 µM). Moreover, the Activity result in series [1] is reported as “Non-toxic”.

`COc1cc(/C=C/C(=O)OC[C@H]2O[C@H](O[C@]3(CO)O[C@H](CO)[C@@H](OC(=O)/C=C/c4cc(OC)c(O)c(OC)c4)[C@@H]3OC(=O)/C=C/c3cc(OC)c(O)c(OC)c3)[C@H](O)[C@@H](O)[C@@H]2O)cc(OC)c1O`: the IC50 is 48.9 µM in the series on BV-2; 25.9 µM in the series with A549; 19.2 µM in the series with SK-OV-3; 18.6 µM in the series with SK-MEL-2; 14.1 µM with HCT-15; 27.1 µg/mL (≈ 28.2 µM) in [2]. Further, the Activity result in [1] is recorded as “Non-toxic”.

In the case of `COc1cc(/C=C/C(=O)OC[C@H]2O[C@H](O[C@]3(CO)O[C@H](CO)[C@@H](O)[C@@H]3OC(=O)/C=C/c3cc(OC)c(O)c(OC)c3)[C@H](O)[C@@H](O)[C@@H]2O)cc(OC)c1O`, the IC50 was 37.1 µM in the series with BV-2; 21.1 µM in the series on A549; 16.7 µM in the series on SK-OV-3; 14.2 µM in the series with SK-MEL-2; 17.2 µM in the series with HCT-15; 29.63 µg/mL (≈ 39.3 µM) in [2]. Moreover, the Activity result in [1] is “Non-toxic”.

For `COc1cc(/C=C/C(=O)OC[C@H]2O[C@H](O[C@]3(CO)O[C@H](CO)[C@@H](O)[C@@H]3OC(=O)/C=C/c3cc(OC)c(OC)c(OC)c3)[C@H](O)[C@@H](O)[C@@H]2O)cc(OC)c1O`, the IC50 in the series on BV-2 came to 27 µM; in the series with A549, 26 µM; with SK-OV-3, 24.6 µM; in the series with SK-MEL-2 it was 21.6 µM; with HCT-15, 18.3 µM; in [2], 54.98 µg/mL (≈ 71.5 µM). Also, the Activity entry in series [1] is “Non-toxic”.

Turning to `COc1cc(/C=C/C(=O)OC[C@H]2O[C@H](O[C@]3(CO)O[C@H](CO)[C@@H](O)[C@@H]3OC(=O)/C=C/c3ccc(O)c(OC)c3)[C@H](O)[C@@H](O)[C@@H]2O)ccc1O`, the IC50 with BV-2 was 45.5 µM; in the series on A549, greater than 30 µM; with SK-OV-3, 20 µM; in the series on SK-MEL-2 it was 27.9 µM; in the series with HCT-15 it was 17.8 µM; in series [2], 35.33 µg/mL (≈ 50.9 µM). Also, in series [1], the Activity entry is “Non-toxic”.

Take `COc1cc(/C=C/C(=O)O[C@H]2[C@H](O)[C@@H](CO)O[C@@]2(CO)O[C@H]2O[C@H](CO)[C@@H](O)[C@H](O)[C@H]2O)cc(OC)c1O`: the IC50 with BV-2 stood at 37.4 µM; in the series on A549, 23.9 µM; with SK-OV-3, 20.5 µM; in the series on SK-MEL-2, 23.9 µM; with HCT-15 it was 27 µM; in series [2], 78.2 µg/mL (≈ 143 µM). The cytotoxicity in [3] is 15%.

Regarding `COc1cc(/C=C/CO[C@@H]2O[C@H](CO)[C@@H](O)[C@H](O)[C@H]2O)ccc1O`, the inhibition at 100 µM in the series on RAW264.7 worked out at 50%.

In the series with RAW264.7, `OC[C@H]1O[C@@H](OC/C=C/c2ccc(O)cc2)[C@H](O)[C@@H](O)[C@@H]1O` yielded an inhibition at 100 µM of 50%.

On to `O=C1O[C@H]([C@@H](O)CO)C(O)=C1O` [ASCORBIC ACID], for which the IC50 in series [2] is 7.63 µg/mL (≈ 43.3 µM).

As for `COc1cccc2c1C(=O)c1c(O)c3c(c(O)c1C2=O)C[C@@](O)(C(=O)CO)C[C@@H]3O[C@H]1C[C@H](N)[C@H](O)[C@H](C)O1` [DOXORUBICIN], the IC50 in the series with SK-OV-3 worked out at 0.012 µM; with SK-MEL-2 it was 0.001 µM.

As to `OC[C@H]1O[C@@](CO)(O[C@H]2O[C@H](CO)[C@@H](O)[C@H](O)[C@H]2O)[C@@H](O)[C@@H]1O` [SUCROSE], the IC50 is greater than 200 µM in the series with BV-2; greater than 30 µM in the series with A549; greater than 30 µM with SK-OV-3; greater than 30 µM in the series on SK-MEL-2; greater than 30 µM in the series on HCT-15; “Not Active” in series [2]. Further, the Activity entry in series [1] is “Non-toxic”.
